Reference: patent US12378256B2, “Heterocyclic compound” (Takeda Pharmaceutical Company Limited, priority 2017, dated 2025)

Experiments:
[1] = biological target: T1, human M1 receptor (hCHRM1) (Homo sapiens, UniProt P11229); test: Measurement of M1 receptor positive allosteric modulator (M1PAM) activity, calcium fluorescence with acetylcholine at EC20; type: cell-based; conditions: for activity (%) at 10 μM: 10 μM test compound, 100% = 1 μM acetylcholine, 0% = DMSO; for EC50: CHO-K1 cells expressing hCHRM1, acetylcholine at EC20 (final 0.8-1.0 nM), read-out: IP value (inflection point in the concentration-dependent curve)
T1 construct: expressed in transfected cells; host or cells: CHO-K1
T1 sequence (P11229 1-460): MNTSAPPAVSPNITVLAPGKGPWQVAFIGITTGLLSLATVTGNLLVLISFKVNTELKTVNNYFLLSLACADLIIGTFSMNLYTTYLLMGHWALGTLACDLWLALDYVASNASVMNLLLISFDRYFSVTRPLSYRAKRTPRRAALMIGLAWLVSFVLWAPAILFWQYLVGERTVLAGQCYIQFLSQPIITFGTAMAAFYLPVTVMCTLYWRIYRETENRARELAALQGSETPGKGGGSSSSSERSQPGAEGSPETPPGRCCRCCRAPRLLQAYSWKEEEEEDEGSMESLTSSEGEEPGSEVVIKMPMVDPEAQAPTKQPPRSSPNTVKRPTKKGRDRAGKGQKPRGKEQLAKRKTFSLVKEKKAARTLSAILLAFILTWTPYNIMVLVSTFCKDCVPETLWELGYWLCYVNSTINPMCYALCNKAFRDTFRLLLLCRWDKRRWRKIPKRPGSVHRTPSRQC
Experimental: Measurement of M1 Receptor Positive Allosteric Modulator (M1PAM) Activity
The activity of a test compound in the presence of acetylcholine at EC20 concentration (final concentration 0.8-1.0 nM), which affords an action corresponding to about 20% of the maximum activity, was measured as PAM activity. The method is as follows. CHO-K1 cells stably expressing a human M1 receptor (hCHRM1) were plated on a 384-well black clear bottom plate (BD Falcon) at 5,000 cells/well, and cultured in an incubator at 37° C., 5% CO2 for 1 day. The medium in the cell plate was removed, and assay buffer A containing calcium indicator (Recording medium (DOJINDO LABORATORIES), 0.1% BSA (Wako Pure Chemical Industries, Ltd.), 2.5 μg/mL Fluo-4 AM (DOJINDO LABORATORIES), 0.08% Pluronic F127 (DOJINDO LABORATORIES), 1.25 mM probenecid (DOJINDO LABORATORIES)) was added at 30 μL/well. The cells were left standing in the incubator at 37° C., 5% CO2 for 30 min, and further left standing at room temperature for 30 min. A test compound prepared by diluting with assay buffer B (HBSS (Invitrogen), 20 mM HEPES (Invitrogen), 0.1% BSA) containing 3.2-4.0 nM acetylcholine was added at 10 μL/well, and the fluorescence was measured by FDSS/μCELL (Hamamatsu Photonics K.K.) for 1 min every for 1 second. With the definition that the amount of change in the fluorescence on addition of acetylcholine (final concentration 1 μM) is 100% and that on addition of DMSO instead of a test compound is 0%, the activity (%) of the test compound was calculated, and the inflection point in the concentration-dependent curve of the test compound was calculated as IP values.

[2] = test system: Male SD rats; test: Rat defecation experiment; type: in vivo; conditions: mean ± standard error
Experimental: Rat Defecation Experiment
Male SD rats (5-6 weeks old) were used after an acclimation period for about 1 week. A test drug (1 mg/kg or 3 mg/kg) was suspended in 0.5% methylcellulose solution and orally administered at a volume of 5 mL/kg, and the number of feces 2 hr later was counted. Only 0.5% methylcellulose was administered to a solvent administration group.

How did the “activity (%) at 10 μM” value [1] turn out when `O=C(N[C@H]1CCOC[C@@H]1O)c1cc(Cc2ccc(-n3cccn3)cc2)c2c(n1)CCO2` [Example 22, 1,5-anhydro-2,3-dideoxy-3-(((7-(4-(1H-pyrazol-1-yl)benzyl)-2,3-dihydrofuro[3,2-b]pyridin-5-yl)carbonyl)amino)-L-threo-pentitol] was run?
Its value is 106%.

What about the EC50 [1] of the same compound?
Its EC50 is 1.7 nM.

`Cn1cc(-c2ccc(Cc3cc(C(=O)N[C@H]4CCOC[C@@H]4O)nc4c3OCC4)cc2)nn1` [Example 31, 1,5-anhydro-2,3-dideoxy-3-(((7-(4-(1-methyl-1H-1,2,3-triazol-4-yl)benzyl)-2,3-dihydrofuro[3,2-b]pyridin-5-yl)carbonyl)amino)-L-threo-pentitol] was tested. Which “activity (%) at 10 μM” value [1] did it give?
The value was 101%.

What about the EC50 [1] of the same compound?
Its EC50 is 1.4 nM.

And the “number of feces 2 hr later” value ([2]; 1 mg/kg oral)?
Its value is 10.0 ± 1.4.

With `COCCNC(=O)c1ccc(Cc2cc(C(=O)N[C@H]3CCOC[C@@H]3O)nc3ccoc23)cc1F` [Example 109, 1,5-anhydro-2,3-dideoxy-3-(((7-(3-fluoro-4-((2-methoxyethyl)carbamoyl)benzyl)furo[3,2-b]pyridin-5-yl)carbonyl)amino)-L-threo-pentitol] as the compound, how does the “activity (%) at 10 μM” value [1] read?
The value was 107%.

What about the EC50 [1] of the same compound?
Its EC50 is 2.4 nM.

For `O=C(N[C@H]1CCOC[C@@H]1O)c1cc(Cc2ccc(C(=O)NC[C@@H]3CCCO3)c(F)c2)c2occc2n1` [Example 102, 1,5-anhydro-2,3-dideoxy-3-(((7-(3-fluoro-4-(((2S)-tetrahydrofuran-2-ylmethyl)carbamoyl)benzyl)furo[3,2-b]pyridin-5-yl)carbonyl)amino)-L-threo-pentitol], which “activity (%) at 10 μM” value [1] is on record?
Its value is 107%.

And the EC50 [1]?
Its EC50 is 2.7 nM.

What about the “number of feces 2 hr later” value ([2]; 1 mg/kg oral) of the same compound?
Its value is 8.9 ± 1.3.

What about the “number of feces 2 hr later” value ([2]; 3 mg/kg oral) of the same compound?
The value was 12.4 ± 0.9.

For `O=C(N[C@H]1CCOC[C@@H]1O)c1cc(Cc2ccc(C(=O)NC[C@@H]3CCCO3)c(F)c2)c2c(n1)CCO2` [Example 77, 1,5-anhydro-2,3-dideoxy-3-(((7-(3-fluoro-4-(((2S)-tetrahydrofuran-2-ylmethyl)carbamoyl)benzyl)-2,3-dihydrofuro[3,2-b]pyridin-5-yl)carbonyl)amino)-L-threo-pentitol], which “activity (%) at 10 μM” value [1] is on record?
Its value is 108%.

And the EC50 [1]?
The EC50 was 3.2 nM.

What about the “number of feces 2 hr later” value ([2]; 1 mg/kg oral) of the same compound?
Its value is 13.9 ± 1.5.

And the “number of feces 2 hr later” value ([2]; 3 mg/kg oral)?
The value was 12.3 ± 1.6.

With `COCCNC(=O)c1ccc(Cc2cc(C(=O)N[C@H]3CCOC[C@@H]3O)nc3c2OCC3)cc1F` [Example 76, 1,5-anhydro-2,3-dideoxy-3-(((7-(3-fluoro-4-((2-methoxyethyl)carbamoyl)benzyl)-2,3-dihydrofuro[3,2-b]pyridin-5-yl)carbonyl)amino)-L-threo-pentitol] as the compound, how does the “activity (%) at 10 μM” value [1] read?
Its value is 109%.

And the EC50 [1]?
The EC50 was 3.5 nM.

What about the “number of feces 2 hr later” value ([2]; 1 mg/kg oral) of the same compound?
Its value is 8.3 ± 0.8.

And the “number of feces 2 hr later” value ([2]; 3 mg/kg oral)?
Its value is 10.3 ± 0.9.

With `Cn1cc(-c2ccc(Cc3cc(C(=O)N[C@H]4CCOC[C@@H]4O)nc4c3OCC4)cc2)cn1` [Example 44, 1,5-anhydro-2,3-dideoxy-3-(((7-(4-(1-methyl-1H-pyrazol-4-yl)benzyl)-2,3-dihydrofuro[3,2-b]pyridin-5-yl)carbonyl)amino)-L-threo-pentitol] as the compound, how does the “activity (%) at 10 μM” value [1] read?
Its value is 105%.

What about the EC50 [1] of the same compound?
Its EC50 is 1.5 nM.

For `Cn1cc(-c2ccc(Cc3cc(C(=O)N[C@H]4CCOC[C@@H]4O)nc4ccoc34)cc2)nn1` [Example 20, 1,5-anhydro-2,3-dideoxy-3-(((7-(4-(1-methyl-1H-1,2,3-triazol-4-yl)benzyl)furo[3,2-b]pyridin-5-yl)carbonyl)amino)-L-threo-pentitol], which “activity (%) at 10 μM” value [1] is on record?
Its value is 98%.

And the EC50 [1]?
Its EC50 is 0.88 nM.

What about the “number of feces 2 hr later” value ([2]; 1 mg/kg oral) of the same compound?
The value was 10.6 ± 1.3.

And the “number of feces 2 hr later” value ([2]; 3 mg/kg oral)?
The value was 12.1 ± 1.1.

What does the source list for `Cn1cnc(-c2ccc(Cc3cc(C(=O)N[C@H]4CCOC[C@@H]4O)nc4c3OCC4)cc2)c1` [Example 74, 1,5-anhydro-2,3-dideoxy-3-(((7-(4-(1-methyl-1H-imidazol-4-yl)benzyl)-2,3-dihydrofuro[3,2-b]pyridin-5-yl)carbonyl)amino)-L-threo-pentitol]?
activity (%) at 10 μM [1]: 108%; EC50 [1]: 1.5 nM

What does the source list for `Cn1cc(-c2ccc(Cc3cc(C(=O)N[C@H]4CCOC[C@@H]4O)nc4ccoc34)cn2)cn1` [Example 36, 1,5-anhydro-2,3-dideoxy-3-(((7-((6-(1-methyl-1H-pyrazol-4-yl)pyridin-3-yl)methyl)furo[3,2-b]pyridin-5-yl)carbonyl)amino)-L-threo-pentitol]?
activity (%) at 10 μM [1]: 96%; EC50 [1]: 1.5 nM

For `Cn1cc(-c2ccc(C(F)c3cc(C(=O)N[C@H]4CCOC[C@@H]4O)nc4ccoc34)cc2)nn1` (single isomer, unassigned) [Example 55, 1,5-anhydro-2,3-dideoxy-3-(((7-(fluoro(4-(1-methyl-1H-1,2,3-triazol-4-yl)phenyl)methyl)furo[3,2-b]pyridin-5-yl)carbonyl)amino)-L-threo-pentitol], which “activity (%) at 10 μM” value [1] is on record?
The value was 107%.

And the EC50 [1]?
Its EC50 is 0.63 nM.
